Measurements: patent publication US6576663B2, “6-Keto prostaglandin F1α and analogs for treating dry eye” (Alcon, Inc., priority 1999, dated 2003)

Assays:
[1] = tested on: human conjuctival epithelium; assay: mucin production in human conjuctival epithelium; format: cell-based
[2] = tested on: intestinal epithelial cells; settings: released by intestinal epithelial cells in response to hypoxia; cited from earlier work

## CCCCC[C@H](O)/C=C/[C@@H]1[C@@H](CC(=O)CCCCC(=O)O)[C@@H](O)C[C@H]1O [6-keto PGF1α, 6-keto-PGF1α]
[1]
  mucin production: stimulate mucin production
[2]
  chloride secretagogue activity: potent chloride secretagogue
